Experimental findings from ChEMBL document CHEMBL5365483, “Structure-Based Drug Design of Novel Triaminotriazine Derivatives as Orally Bioavailable IDH2R140Q Inhibitors with High Selectivity and Reduced hERG Inhibitory Activity for the Treatment of Acute Myeloid Leukemia” (J Med Chem, 2023) are described below.

Series [1] can be described thus: in vitro. The conditions noted are these: mouse, liver microsomes. (Liver microsomes are vesicles of endoplasmic reticulum, rich in cytochrome P450 enzymes.)
Series [2] in a line: in vitro. The note with it: mouse, liver microsomes. The source holds these as a separate data set.
The nature of series [3]: in vitro. The note with it: human, liver microsomes.
A short description of series [4]: in vitro. The conditions noted are these: human, liver microsomes. This is another data set of the same source.
Series [5] in a line: in vivo. The conditions noted are these: BALB/c, mouse, iv, 5 mg/kg.
Series [6] is described as follows: in vivo. The conditions noted are these: BALB/c, mouse, po, 25 mg/kg.
Series [7] is described as follows: in vivo. The conditions noted are these: BALB/c, mouse, iv, 5 mg/kg. The source holds these as a separate data set.
The nature of series [8]: in vivo. The conditions noted are these: BALB/c, mouse, po, 25 mg/kg. This is another data set of the same source.
A short description of series [9]: in vivo. The note with it: BALB/c, mouse, iv, 5 mg/kg. This is another data set of the same source.
Series [10] in a line: in vivo. The conditions noted are these: BALB/c, mouse, po, 25 mg/kg. The source holds these as a separate data set.
The nature of series [11]: in vivo. The conditions noted are these: BALB/c, mouse, iv, 5 mg/kg. This is another data set of the same source.
The nature of series [12]: in vivo. The conditions noted are these: BALB/c, mouse, po, 25 mg/kg. This is another data set of the same source.
Series [13] in a line: in vivo. The note with it: BALB/c, mouse, iv, 5 mg/kg. This is another data set of the same source.
Series [14] in a line: in vivo. The note with it: BALB/c, mouse, po, 25 mg/kg. This is another data set of the same source.

What is called half-life is how long it takes for the measured level to halve. One may read the CLint scaled as the capacity of the preparation to metabolise the compound, expressed as a volume cleared per time. In general, AUC(0-inf) refers to total exposure, with the tail of the curve extrapolated. High values mean more exposure, low ones less exposure. A word on the Cmax: it is the peak of the concentration-time curve. By clearance is commonly meant a measure of how efficiently the substance is removed, as volume per time. A lower clearance goes with a low capacity for elimination. For orientation: MRT means a mean duration of stay, worked out from the concentration-time curve.

As for `CCOc1ccc(NC(C)=O)cc1` [PHENACETIN], the values for the half-life at 1 h, 1 µM in the series “in vitro [1]” and in “in vitro [4]” were 0.0567 h and 1.13 h, respectively. In addition, the CLint scaled at 1 h, 1 µM in the series “in vitro [2]” is 1590 mL/min/kg; in “in vitro [3]”, 23.6 mL/min/kg.
Consider `O=C(O)Cc1ccccc1Nc1c(Cl)cccc1Cl` [DICLOFENAC], for which the half-life at 1 h, 1 µM in “in vitro [1]” was 0.402 h; in “in vitro [4]”, 0.0883 h. Moreover, the intrinsic clearance (CLint scaled) at 1 h, 1 µM amounted to 226 mL/min/kg in “in vitro [2]” and 302 mL/min/kg in the series “in vitro [3]”.
On to `CC(C)(O)CNc1nc(Nc2ccnc(C(F)(F)F)c2)nc(-c2cccc(C(F)(F)F)n2)n1` [ENASIDENIB], for which the AUC(0-inf) at 24 h in the series “in vivo [5]” stood at 14000 ng·h/mL. This compound yielded a Cmax at 72 h in the series “in vivo [6]” of 6390 ng/mL. This compound also came in with a clearance at 24 h in “in vivo [7]” of 5.99 mL/min/kg. This compound showed a mean residence time MRT at 72 h in the series “in vivo [8]” of 7.45 h. Besides, the maximum concentration (Cmax) at 24 h in the series “in vivo [9]” was found to be 2840 ng/mL. Moreover, in “in vivo [10]”, the bioavailability at 72 h is 125%. The half-life at 24 h in “in vivo [11]” is 2.71 h. Also, the total exposure AUC(0-inf) at 72 h in “in vivo [12]” turned out to be 87600 ng·h/mL. For the same compound, the mean residence time (MRT) at 24 h in “in vivo [13]” worked out at 4.9 h. This compound showed a half-life at 72 h in the series “in vivo [14]” of 6.98 h.
